Test results published in patent US5939385A, “Transglutaminase cross-linkable polypeptides and methods relating thereto” (ZymoGenetics, Inc., priority 1995, dated 1999).
No end group written: not given here.

Target: T1, recombinant Factor XIII (rFXIIIa) (Homo sapiens, UniProt P00488)
T1 construct: made in house
T1 sequence (P00488 39-732 limits assumed): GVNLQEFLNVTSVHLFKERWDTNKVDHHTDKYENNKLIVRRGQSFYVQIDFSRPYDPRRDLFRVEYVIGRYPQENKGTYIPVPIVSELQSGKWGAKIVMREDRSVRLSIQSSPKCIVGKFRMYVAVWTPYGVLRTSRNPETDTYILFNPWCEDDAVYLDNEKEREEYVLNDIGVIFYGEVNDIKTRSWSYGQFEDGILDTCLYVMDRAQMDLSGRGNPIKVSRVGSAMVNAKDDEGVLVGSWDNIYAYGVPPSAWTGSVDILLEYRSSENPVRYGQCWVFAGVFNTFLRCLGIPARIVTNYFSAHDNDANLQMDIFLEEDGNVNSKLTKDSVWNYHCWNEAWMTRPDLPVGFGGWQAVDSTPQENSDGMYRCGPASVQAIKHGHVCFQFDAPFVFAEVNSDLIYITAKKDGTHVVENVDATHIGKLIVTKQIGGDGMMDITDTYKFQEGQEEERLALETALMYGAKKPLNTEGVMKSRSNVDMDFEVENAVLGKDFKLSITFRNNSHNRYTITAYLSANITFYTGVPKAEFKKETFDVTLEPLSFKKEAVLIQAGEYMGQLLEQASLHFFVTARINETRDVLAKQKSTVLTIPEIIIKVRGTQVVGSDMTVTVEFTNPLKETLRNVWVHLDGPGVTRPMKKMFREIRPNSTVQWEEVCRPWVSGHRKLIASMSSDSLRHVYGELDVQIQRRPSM
Test: Factor XIII cross-linking assay of test polypeptide substrates (HPLC area % vs time)
Assay type: biochemical
Protocol: Polypeptides are screened for the ability to form transglutaminase-catalyzed cross-links using a cross-linking assay as described in more detail below. […] Each reaction receives 50 mM CaCl2 to a final concentration of 2.5 mM. A negative control for each test substrate is also prepared in which the reaction lacks a transglutaminase (e.g., Factor XIII). A positive control of the fibrinogen polypeptide (The-Ile-Gly-Glu-Gly-Gln-Gln-His-His-Leu-[…]-Gln-Ala-Gly-Asp-Val) is used for each set of reactions. The reactions are initiated by the addition of 40 μg/ml of transglutaminase (e.g., recombinant Factor XIII) followed by 0.1 unit of bovine thrombin (Enzyme Research Laboratories, Inc., South Bend, Ind.) to each solution, except the negative controls. The reactions are incubated in a 37° C. water bath. A time course of 10 μl samples are taken from each reaction at 0 minutes, 30 minutes, 60 minutes, 120 minutes and overnight. The reactions are stopped by boiling for one minute. After the reactions are terminated, each sample is diluted to 50 μl with 40 μl of TBS buffer (120 mM NaCl, 50 mM Tris (pH 7.6)) and the samples are prepared for HPLC analysis.
Each sample is chromatographed on a C-18 reverse phase HPLC column (Vydac, Hesperia, Calif. or the like) using a gradient of 0-40% B in 30 minutes (Solvent A: 0.05% trifluoroacetic acid (TFA) in water and Solvent B: 0.045% TFA in 80% acetonitrile, 20% water) on a Hewlett Packard 1090 Series II HPLC or the like. The signal is detected at a wavelength of 215 nm. The area % of each reaction product is collected and plotted versus time to determine the rates of polypeptide utilization dimer formation and multimer formation. A deamidation ratio is determined by dividing the deamidation rate by the dimerization rate.
The ability of the test polypeptides to form Factor XIII-induced multimers, and the susceptibility of the polypeptides to deamidation were assessed using the method described in detail below.
Approximately 0.5 mg of lyophilized polypeptide was dissolved in 50 mM Tris, 125 mM NaCl (pH 7.6) to give a final concentration of 2 mM by weight. […] Each test polypeptide solution received 50 mM CaCl2 to a final concentration of 2.5 mM. For each reaction, a negative control lacking Factor XIII was included. A positive control of the fibrinogen polypeptide Thr-Ile-Gly-Glu-Gly-Gln-Gln-His-His-Leu-Gly-Gly-Ala-Lys-Gln-Ala-Gly-Asp-Val was used for each set of reactions. The reactions were initiated by the addition of 40 μg/ml of recombinant Factor XIII followed by 0.1 unit of bovine thrombin (Enzyme Research Laboratories, Inc.) to each solution, except the negative controls. The reactions were incubated in a 37° C. water bath. Samples of 10 μl were taken from each reaction at 0 minutes, 30 minutes, 60 minutes, 120 minutes and overnight. The reactions were stopped by boiling for one minutes. The samples were diluted to 50 μl TBS buffer (120 mM NaCl, 50 mM Tris (pH 7.6)), and the samples were prepared for HPLC analysis.
Each reaction was chromatographed on a C-18 reverse phase HPLC column (Vydac, Hesperia, Calif., or the like) using a gradient of 0-40% B in 30 minutes (solvent A: 0.05% TFA in water and Solvent B: 0.045% TFA in 80% acetonitrile/20% water) on a Hewlett Packard 1090 Series II HPLC. The signal was detected at a wavelength of 215 nm. The area % of each reaction product was collected and plotted versus time to determine the rates of polypeptide utilization and dimer formation. A deamidation ratio was determined by dividing the deamidation rate by the dimerization rate. […] The abbreviations used in Table 1 are as follows: d[S]/dt indicates the rate of substrate utilization, d[S2 ]/dt indicates the rate of dimer formation and (-NH2 /S2) indicates the relative rates of deamidation to dimerization. The initial rates were normalized to that of the fibrinogen polypeptide Thr-Ile-Gly-Glu-Gly-Gln-Gln-His-His-Leu-Gly-Gly-Ala-Lys-Gln-Ala-Gly-Asp-Val. […]

[1] = initial rate, 2mM substrate, 40 ug/ml rFXIIIa (preactivated), 2.0 U/ml Thrombin, 2.5 mM CaCl2, pH 7.4

With “GVGVPGQHHLGGAKQGVGVP [GVGVPGQ-- HHLGGAKQGVGVP]” the “Monomer Consumption d[S]/dt (rate of substrate utilization)” value (initial rate, 2mM substrate, 40 ug/ml rFXIIIa (preactivated), 2.0 U/ml Thrombin, 2.5 mM CaCl2, 125 mM NaCl, 50 mM TrisHCl, pH 7.4) was -7.3 uM (monomer)/min, the “Crosslinking d(2[S-])/dt (rate of monomer incorporation into dimers)” value [1] was 5.6 uM (monomer)/min and the “Hydrolysis d[-NH3]/dt (hydrolysis = deamidation)” value [1] was 1.7 uM (monomer)/min. The Hydrolysis % (share of hydrolysis (deamidation) relative to hydrolysis plus crosslinking, same reaction conditions) was 23%.
